The values that follow come from PMC7655067, “Crystal structure-guided design of berberine-based novel chitinase inhibitors” (Journal of Enzyme Inhibition and Medicinal Chemistry, 2020).

Data set [1] has as its target T1, SmChiB (Serratia marcescens, UniProt P11797).
T1 construct: made in house; host or cells: Escherichia coli BL21 (DE3)
T1 sequence (P11797 42-499): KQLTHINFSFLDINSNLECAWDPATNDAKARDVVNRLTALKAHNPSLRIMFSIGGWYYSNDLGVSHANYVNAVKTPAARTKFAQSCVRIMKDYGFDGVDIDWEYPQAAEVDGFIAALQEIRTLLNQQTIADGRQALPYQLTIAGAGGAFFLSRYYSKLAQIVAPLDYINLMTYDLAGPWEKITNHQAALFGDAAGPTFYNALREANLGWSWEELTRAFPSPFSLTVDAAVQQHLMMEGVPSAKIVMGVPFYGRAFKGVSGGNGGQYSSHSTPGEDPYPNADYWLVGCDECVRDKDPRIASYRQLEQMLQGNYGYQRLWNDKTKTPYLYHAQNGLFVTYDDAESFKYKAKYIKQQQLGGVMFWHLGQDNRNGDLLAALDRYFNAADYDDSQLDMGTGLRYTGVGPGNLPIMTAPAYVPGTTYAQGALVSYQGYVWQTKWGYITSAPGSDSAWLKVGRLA
The experiment in a line: Tryptophan fluorescence quenching, Kd by modified Stern-Volmer equation. The format is binding. Here is the method:
(§1) Tryptophan fluorescence (295 nm excitation) was measured at 25 °C from 300 to 400 nm with a Varioskan Flash microplate reader using excitation and emission band passes of 5 nm. Fluorescence quenching experiments were performed in a 200 μL mixture containing 1 μM protein in the buffer (20 mM sodium phosphate, pH 6.0, for SmChiB, OfChtI and HsCht; 20 mM sodium citrate, pH 5.2, for hAMCase), and by the successive addition of aliquots of compounds stock solution. Since the crystal structure confirmed that berberine binding to SmChiB in a 1:1 ratio, the dissociation constant Kd were then determined using the modified Stern-Volmer equation[35]^,[36]. […]

Data set [2] has as its target T2, HsCht (Homo sapiens, UniProt Q13231).
T2 construct: including the catalytic domains of OfChtI from O. furnacalis, human HsCht and human hAMCase; made in house; host or cells: Pichia pastoris GS115
The experiment in a line: Inhibitory activity assay with MU-(GlcNAc)2, Ki by Dixon plots. The following applies: pH 6.0. The format is biochemical. The procedure:
(§2) ChiB from S. marcescens was expressed in Escherichia coli BL21 (DE3). The other GH18 chitinases including the catalytic domains of OfChtI from O. furnacalis, human HsCht and human hAMCase were expressed in P. pastoris GS115. All the proteins were purified by immobilised metal affinity chromatography (IMAC) as described previously. The purities of the target proteins were analysed by SDS-PAGE followed by Coomassie Brilliant Blue R-250 staining.
(§3) The activity of GH18 chitinases were determined using MU-(GlcNAc)2 as a substrate. The reaction mixtures used for determining the inhibitor activity of compounds consisted of 100 μL of 20 nM enzyme, 4 μM MU-(GlcNAc)2, 1 or 10 μM inhibitors and 2% DMSO in the buffer (20 mM sodium phosphate, pH 6.0, for SmChiB, OfChtI and HsCht; 20 mM sodium citrate, pH 5.2, for hAMCase). The reaction in the absence of compounds was used as a positive control. After incubating at 30 °C for 25 min, an equal volume of 0.5 M sodium carbonate was added to the reaction mixtures to terminate the reaction, and the fluorescence produced by the released MU was quantified using a Varioskan Flash microplate reader (Thermo Fisher Scientific, Waltham, MA), with excitation and emission wavelengths of 360 and 450 nm, respectively. Experiments were performed in triplicate. […] The Ki values and types of inhibition were determined by linear fitting of the data in Dixon plots.

The target in data set [3] is T3, hAMCase (Homo sapiens, UniProt Q9BZP6).
T3 construct: including the catalytic domains of OfChtI from O. furnacalis, human HsCht and human hAMCase; made in house; host or cells: Pichia pastoris GS115
T3 sequence (Q9BZP6 22-390 limits assumed): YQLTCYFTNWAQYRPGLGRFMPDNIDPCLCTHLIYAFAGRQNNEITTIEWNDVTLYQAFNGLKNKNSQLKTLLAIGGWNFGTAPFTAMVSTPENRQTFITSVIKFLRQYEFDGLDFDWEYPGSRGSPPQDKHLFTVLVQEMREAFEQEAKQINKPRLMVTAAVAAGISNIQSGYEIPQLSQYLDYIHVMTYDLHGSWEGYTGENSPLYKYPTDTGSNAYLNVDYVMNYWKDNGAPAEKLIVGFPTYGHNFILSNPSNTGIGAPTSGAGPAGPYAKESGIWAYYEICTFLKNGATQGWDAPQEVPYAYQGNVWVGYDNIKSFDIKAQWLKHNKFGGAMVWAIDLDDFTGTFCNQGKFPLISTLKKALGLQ
The data set is described as above. The format is biochemical. To be noted: pH 5.2. Here is the method:
as §2, §3

The target of data set [4] is T4, OfChtI (Ostrinia furnacalis, UniProt Q2V6H4). Described as above. The data set is classed as biochemical. The following applies: for Ki: pH 6.0, Dixon plots. The procedure:
as §2, §3

Data set [5] concerns the target T1, SmChiB. Briefly: biochemical. The data set is classed as biochemical. Here is the method:
as §2, §3

Data set [6] concerns the target T4, OfChtI. Briefly: Tryptophan fluorescence quenching, Kd by modified Stern-Volmer equation. The data set is classed as binding. The procedure:
as §1

Data set [7] addresses T4, OfChtI. Details: method as in PMID 30135205. The following applies: cited from earlier work.
The target in data set [8] is T2, HsCht. The experiment in a line: Tryptophan fluorescence quenching, Kd by modified Stern-Volmer equation. The data set is classed as binding. To be noted: pH 6.0. The procedure: (§4) Fluorescence quenching experiments were performed in a 200 μL mixture containing 1 μM protein in the buffer (20 mM sodium phosphate, pH 6.0, for SmChiB, OfChtI and HsCht; 20 mM sodium citrate, pH 5.2, for hAMCase), and by the successive addition of aliquots of compounds stock solution.

Data set [9] has as its target T3, hAMCase. The description is as above. The format is binding. To be noted: pH 5.2. Here is the method: as §4
The target in data set [10] is T2, HsCht. Also on record: method as in PMID 30135205. To be noted: cited from earlier work.
Data set [11] addresses T3, hAMCase. Also on record: method as in PMID 30135205. To be noted: cited from earlier work.
Where [12] appears, read: SmChiB, tryptophan fluorescence quenching, pH 6.0, read-out: Kd.
Where [13] appears, read: SmChiB, pH 6.0, Dixon plots, read-out: Ki.

Counter-ions that a name gives are not always drawn. Like-named read-outs stand apart in the source and are kept apart here.

T4 sequence (Q2V6H4 entry or part of it): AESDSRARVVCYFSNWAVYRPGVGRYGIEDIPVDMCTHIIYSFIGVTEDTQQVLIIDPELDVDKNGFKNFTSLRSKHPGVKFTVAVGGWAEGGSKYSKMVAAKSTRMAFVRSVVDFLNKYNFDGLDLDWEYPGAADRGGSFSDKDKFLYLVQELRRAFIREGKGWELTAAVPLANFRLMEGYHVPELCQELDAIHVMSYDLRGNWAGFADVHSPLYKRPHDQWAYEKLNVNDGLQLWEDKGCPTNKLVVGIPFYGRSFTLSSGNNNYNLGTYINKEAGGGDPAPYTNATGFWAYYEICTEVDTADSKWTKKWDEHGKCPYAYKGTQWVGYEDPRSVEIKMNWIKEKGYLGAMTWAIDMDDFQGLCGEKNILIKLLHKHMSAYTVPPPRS
T2 sequence (Q13231 22-388 limits assumed): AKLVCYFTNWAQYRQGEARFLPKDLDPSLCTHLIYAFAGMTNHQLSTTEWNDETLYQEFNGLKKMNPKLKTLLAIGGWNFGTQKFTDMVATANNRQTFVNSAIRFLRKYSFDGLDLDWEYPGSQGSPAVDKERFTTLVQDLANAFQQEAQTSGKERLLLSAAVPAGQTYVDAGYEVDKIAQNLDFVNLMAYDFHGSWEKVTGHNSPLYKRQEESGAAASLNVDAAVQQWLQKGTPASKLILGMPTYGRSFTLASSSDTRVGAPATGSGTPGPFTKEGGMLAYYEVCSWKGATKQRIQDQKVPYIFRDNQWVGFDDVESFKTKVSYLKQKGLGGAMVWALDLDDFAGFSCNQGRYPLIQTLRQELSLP

The melting point is the temperature, or range, at which the solid turns liquid. As for `COC(=O)CCC(=O)Oc1c(OC)ccc2cc3[n+](cc12)CCc1cc2c(cc1-3)OCO2` (as salt: chloride) [4a], the melting point is 192 °C (dec.).

By Kd is commonly meant the free concentration of one partner at which half of the binding sites on the other are occupied at equilibrium, for simple one-to-one binding. The term Ki denotes the equilibrium dissociation constant of an inhibitor or competing ligand from its target. With `COC(=O)CCC(=O)Oc1c(OC)ccc2cc3[n+](cc12)CCc1cc2c(cc1-3)OCO2` [4a], the Kd on SmChiB [1] (setting [12]) stood at 1.12 µM. Also, the Ki on HsCht [2] was found to be 8.23 µM; on hAMCase [3], 7.43 µM; at OfChtI [4], 6.43 µM; on SmChiB [5] (setting [13]) it was 0.68 µM.

Regarding `COc1ccc2cc3[n+](cc2c1OC(=O)c1ccccc1)CCc1cc2c(cc1-3)OCO2` [4b], the Kd at SmChiB [1] (setting [12]) is 2.99 µM. Also, the Ki at HsCht [2] is 11.4 µM; at hAMCase [3] it was 4.62 µM; at OfChtI [4], 7.28 µM; at SmChiB [5] (setting [13]) it was 2.36 µM.

Turning to `COc1ccc2cc3[n+](cc2c1OC(=O)c1ccc(F)nc1)CCc1cc2c(cc1-3)OCO2` [4c], the Kd at SmChiB [1] (setting [12]) turned out to be 0.19 µM; at OfChtI [6] (OfChtI, tryptophan fluorescence quenching, pH 6.0, read-out: Kd), 2.58 µM. Moreover, at OfChtI [4] (from Ki values), the “inhibitory activity increase compared to berberine” value is reported as 7.5 fold. Further, the Ki on OfChtI [4] was 3.03 µM; at SmChiB [5] (setting [13]), 0.15 µM.

For `COc1ccc2cc3[n+](cc2c1OC)CCc1cc2c(cc1-3)OCO2` [Berberine, berberine], the Ki was 23 µM at OfChtI [7], 19 µM on HsCht [10], 11.8 µM on SmChiB [5] and 65 µM at hAMCase [11]. The type of inhibition result is “competitive inhibitor” on OfChtI [7]; “competitive inhibitor” on HsCht [10]; “competitive inhibitor” on SmChiB [5] (SmChiB, Dixon plots); “competitive inhibitor” on hAMCase [11]. Besides, the Kd at SmChiB [1] stood at 12 µM; at OfChtI [6] it was 20.6 µM; at HsCht [8] it was 21.9 µM; on hAMCase [9] it was 58 µM.
